“Also recorded” adds a separate entry of the source.
How the values were obtained:
G. vaginalis 14018 [1] = test: Biofilm formation of G. vaginalis 14018 in polystyrene plates (CFU assay); type: cell-based, Gardnerella vaginalis; conditions: for effect on (proportional) biofilm formation, in words: G. vaginalis 14018, 24 hour biofilms, NYCIII media; for reduction of biofilm formation: G. vaginalis 14018, NYCIII media, anaerobic, 24 h, 0.2 wt %
G. vaginalis 14018 [2] = test: Total growth of G. vaginalis 14018 (CFU assay); type: cell-based, Gardnerella vaginalis; conditions: for effect on total growth, in words: G. vaginalis 14018, NYCIII media (contains 1% glucose), soluble additive; for effect on growth in media without glucose, in words: G. vaginalis 14018, NYCIII media without glucose (data not shown); for suppression of growth: G. vaginalis 14018, glucose-rich NYCIII media, 0.2 wt % soluble monosaccharide
[3] = tested on: Gardnerella vaginalis 49145; test: Biofilm formation of G. vaginalis 49145 (CFU assay); type: cell-based
[4] = tested on: Gardnerella vaginalis ATCC 14018 mature biofilms; test: Disruption of established G. vaginalis biofilms (CFU of biofilm and supernatant fractions); type: cell-based; conditions: for viable cell counts in supernatant / biofilm fractions, in words: pre-established 24 h biofilms, 24 h treatment
Protocol: Gardnerella vaginalis 14018 ATCC strain was obtained from ATCC. Salivary MUC5B mucin was isolated and purified as described previously. Galactose and D-Fucose were obtained from Sigma-Aldrich. AnaeroPacks were purchased from VWR. Prior to the experiment, MUC5B mucin was weighed out and solubilized to desired concentration on a shaker overnight. To establish mature biofilms, an overnight preculture of Gardnerella vaginalis ATCC 14018 was diluted 1:20 into fresh NYC III medium with 1% glucose and incubated at 37° C. in the anaerobic chamber for 24 h. Before adding fresh solutions, a set of triplicate wells was sacrificed to quantify cell counts in supernatant and biofilm fraction at the 24 h timepoint. The spent supernatant was gently drained from the rest of the wells and fresh medium or mucin/monosaccharide solutions in medium were added on top of the bacterial biomass. Plate was gently rocked (100 rpm) for 24 h in the anaerobic atmosphere (generated with AnaeroPack, Mitsubishi in the airtight container) in the 37° C. incubator. After 24 h, the supernatant was removed into a separate plate and the biofilms were washed twice with […], sterile phosphate-buffer saline (PBS) and washes were combined with the supernatant (=supernatant fraction). Another […], of PBS was added to the biofilms, each well was vigorously scraped with P20 tip for 20 s and scraped biomass pipetted up and down to homogenize the solution (=biofilm fraction). Both supernatant and biofilm solutions were serially diluted, plated on BHI-agar (BHI=brain-heart infusion, 1.5% agar) and incubated in the anaerobic chamber 37° C. incubator. Colonies were counted after ˜48 h.

[5] = tested on: Gardnerella vaginalis mature biofilms; test: Minimum biofilm eradication assay with metronidazole; type: cell-based; conditions: 0.2 wt % monosaccharide with metronidazole concentration series, established biofilms, 24 h
Protocol: Mature biofilms of Gardnerella vaginalis were established as described above. On a separate plate serial dilution of metronidazole alone or in combination with 0.2 wt % Gal/D-Fuc were prepared in NYC III 1% Glc medium. Negative controls (no metronidazole) were also included on the plate. After spent supernatant was drained from mature biofilms, 100 μL, of metronidazole/metronidazole-monosaccharide or negative controls solutions were added to the biofilms and plate was rocked (100 rpm) for 24 h in the anaerobic atmosphere (generated with AnaeroPack, Mitsubishi in the airtight container) in the 37° C. incubator. After 24 h incubation, the CFUs of supernatant and biofilm fractions were quantified as described in the biofilm disruption experiment.

[6] = tested on: Gardnerella vaginalis 49145; test: Total growth of G. vaginalis 49145 (CFU assay); type: cell-based; conditions: G. vaginalis 49145, glucose-rich media

Row | Compound | effect on (proportional) biofilm formation, in words (G. vaginalis 14018 [1]) | effect on total growth, in words (G. vaginalis 14018 [2]) | effect on biofilm formation, in words [3] | reduction of biofilm formation (G. vaginalis 14018 [1]) [%] | viable cell counts in supernatant / biofilm fractions, in words [4] | other results
1 | CC(=O)N[C@H]1C(O)O[C@H](CO)[C@@H](O)[C@@H]1O (stereo partly drawn) [GlcNAc, N-acetyl D-glucosamine, reference compound] | only galactose was able to reduce proportional biofilm formation | have no effect | – | – | – | –
2 | MUC5B: mucin glycoprotein, predominant in cervicovaginal fluid, purified from pooled human saliva and reconstituted into gels | limited its biofilm formation, toxin production, and killing of endocervical cells; also recorded: reduces relative biofilm formation | did not limit the growth of the bacteria; also recorded: did not have any detrimental impact | reduction of biofilm formation | 76 | increase in the cell counts in the supernatant | effect on (proportional) biofilm formation, in words (G. vaginalis 14018 [1]; listed as mucin): inhibit biofilm formation; disruption of established biofilms, in words ([4]; pre-established biofilms): disrupt established biofilms
3 | CC(=O)N[C@H]1C(O)O[C@H](CO)[C@H](O)[C@@H]1O (stereo partly drawn) [GalNAc, N-acetyl D-galactosamine, reference compound] | only galactose was able to reduce proportional biofilm formation | have no effect | – | – | – | –
4 | C[C@@H](O)[C@H](O)[C@H](O)[C@@H](O)C=O [D-fucose, 6-deoxy-D-galactose] | inhibit biofilm formation | limited G. vaginalis growth in glucose-rich media; also recorded: reduced the overall growth | reduction of biofilm formation | 72 | reduction in viable cells in both biofilm and supernatant fractions | effect in combination with metronidazole on biofilm eradication, in words ([5]; listed as D-Fuc): synergistic effect; effect in combination with metronidazole on biofilm eradication, in words ([5]; listed as D-Fucose): potentiate the action of antibiotic metronidazole; effect on (proportional) biofilm formation, in words (G. vaginalis 14018 [1]; listed as D-Fuc): significantly reduced proportional biofilm formation; effect on total growth, in words [6]: suppressed the growth; effect on growth in media without glucose, in words (G. vaginalis 14018 [2]): did not diminish; suppression of growth (G. vaginalis 14018 [2]): 75%
5 | O=C[C@H](O)[C@@H](O)[C@@H](O)[C@H](O)CO [galactose, D-galactose] | inhibit biofilm formation; also recorded: significantly reduced proportional biofilm formation | limited G. vaginalis growth in glucose-rich media; also recorded: reduced the overall growth | reduction of biofilm formation | 85 | reduction in viable cells in both biofilm and supernatant fractions | effect in combination with metronidazole on biofilm eradication, in words [5]: potentiate the action of antibiotic metronidazole; effect in combination with metronidazole on biofilm eradication, in words ([5]; listed as Gal): synergistic effect; effect on growth in media without glucose, in words (G. vaginalis 14018 [2]): did not diminish; suppression of growth (G. vaginalis 14018 [2]): 90%
6 | C[C@H](O)[C@@H](O)[C@@H](O)[C@H](O)C=O [L-Fuc, L-fucose, reference compound] | only galactose was able to reduce proportional biofilm formation | – | – | – | – | –
7 | CC(=O)N[C@H]1[C@H]([C@H](O)[C@H](O)CO)OC(O)(C(=O)O)C[C@@H]1O (stereo partly drawn) [NeuNAc, N-acetyl D-neuraminic acid, reference compound] | only galactose was able to reduce proportional biofilm formation | – | – | – | – | –
